Laboratory results: US8426408B2, “Pyrimidine inhibitors of kinases” (AbbVie Inc., priority 2009, dated 2013)
pKi: −log10 of the molar value.

How the values were obtained:
KDR = KDR (Homo sapiens, UniProt P35968); experiment: KDR HTRF in vitro kinase assay; assay type: biochemical; design: purified enzyme (His6-KDR 789-1354, MW 63 kD); His6 (N); settings: 1 mM ATP; read-out: KDR enzyme inhibition data (Ki)
In short: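 His6-KDR 789-1354 (7 ng/well) with 0.5 μM biotinylated peptide substrate and 1 mM ATP in HEPES pH 7.1, MgCl2/MnCl2, 60 min at room temperature. EDTA-quenched, detected by streptavidin-XL-665 plus Eu-kryptate anti-phosphotyrosine HTRF after 3 h; IC50 from 620/665 nm ratio.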

NCI-H1299 cells = experiment: Induction of polyploidy in H1299; assay type: cell-based, Human; settings: Homo sapiens; NCI-H1299, 48 hours; read-out: EC15 (concentration of inhibitor necessary to induce polyploidy in 15% of cells)
In short: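 NCI-H1299 cells in RPMI 1640/10% FCS were treated with inhibitor concentrations in duplicate for 48 h at 37 C, then formalin-fixed and Hoechst-stained. Nuclear area was measured by high-content imaging, with polyploid (≥4N) defined as >750 μ^2. EC15 was derived by least-squares fit of log dose-response.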

KDR, sequence (P35968 789-1354): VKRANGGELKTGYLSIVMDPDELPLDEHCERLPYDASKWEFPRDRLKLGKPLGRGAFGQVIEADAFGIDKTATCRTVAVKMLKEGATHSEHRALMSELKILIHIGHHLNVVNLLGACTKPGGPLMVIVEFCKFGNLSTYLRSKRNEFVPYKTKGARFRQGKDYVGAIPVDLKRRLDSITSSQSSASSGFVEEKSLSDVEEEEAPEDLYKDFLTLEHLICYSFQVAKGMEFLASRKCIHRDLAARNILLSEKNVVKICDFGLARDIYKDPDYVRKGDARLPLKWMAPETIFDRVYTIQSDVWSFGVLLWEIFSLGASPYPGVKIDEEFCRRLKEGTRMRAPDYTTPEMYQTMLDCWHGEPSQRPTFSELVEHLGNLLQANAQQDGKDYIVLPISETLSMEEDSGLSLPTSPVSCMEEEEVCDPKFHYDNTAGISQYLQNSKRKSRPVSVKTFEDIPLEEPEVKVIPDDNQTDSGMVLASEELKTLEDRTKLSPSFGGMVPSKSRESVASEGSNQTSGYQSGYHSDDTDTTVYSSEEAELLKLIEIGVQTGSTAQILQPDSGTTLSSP

pKi (KDR) | SMILES | EC15 (NCI-H1299 cells) [nM]
> 7.00 | CN1CCN(CCn2cc(Nc3ncc(Br)c(N[C@H]4[C@@H](C(N)=O)[C@@H]5C=C[C@H]4C5)n3)cn2)CC1 [Example 94, (1S,2S,3R,4R)-3-{[5-bromo-2-({1-[2-(4-methylpiperazin-1-yl)ethyl]-1H-pyrazol-4-yl}amino)pyrimidin-4-yl]amino}bicyclo[2.2.1]hept-5-ene-2-carboxamide] | < 100
> 7.00 | NC(=O)[C@@H]1[C@H](Nc2nc(Nc3cnn(C4CCNCC4)c3)ncc2Br)[C@H]2C=C[C@@H]1C2 [Example 95, (1S,2S,3R,4R)-3-[(5-bromo-2-{[1-(piperidin-4-yl)-1H-pyrazol-4-yl]amino}pyrimidin-4-yl)amino]bicyclo[2.2.1]hept-5-ene-2-carboxamide] | 100 to 1000
> 7.00 | COCCn1cc(Nc2ncc(Cl)c(N[C@H]3[C@@H](C(N)=O)[C@@H]4C=C[C@H]3C4)n2)cn1 [Example 96, (1S,2S,3R,4R)-3-[(5-chloro-2-{[1-(2-methoxyethyl)-1H-pyrazol-4-yl]amino}pyrimidin-4-yl)amino]bicyclo[2.2.1]hept-5-ene-2-carboxamide] | 100 to 1000
